The target of assay [1] is T1, C. difficile full-length toxin TcdA (Clostridioides difficile, UniProt P16154).
T1 construct: C. difficile full-length toxins (TcdA or TcdB); purchased Enzo Life Sciences BML-G140-0050
The assay is described as follows: cell-based.

The target in assay [2] is T2, C. difficile full-length toxin TcdB (Clostridioides difficile, UniProt P18177).
T2 construct: C. difficile full-length toxins (TcdA or TcdB); purchased EMD Millipore 616377
Briefly: cell-based.

In assay [3] the target is T3, recombinant glucosyltransferase domain of C. difficile Toxin B/TcdB (Clostridioides difficile, UniProt P18177).
T3 construct: 6-His (C); purchased R&D Systems 6246-GT
T3 sequence (P18177 1-543): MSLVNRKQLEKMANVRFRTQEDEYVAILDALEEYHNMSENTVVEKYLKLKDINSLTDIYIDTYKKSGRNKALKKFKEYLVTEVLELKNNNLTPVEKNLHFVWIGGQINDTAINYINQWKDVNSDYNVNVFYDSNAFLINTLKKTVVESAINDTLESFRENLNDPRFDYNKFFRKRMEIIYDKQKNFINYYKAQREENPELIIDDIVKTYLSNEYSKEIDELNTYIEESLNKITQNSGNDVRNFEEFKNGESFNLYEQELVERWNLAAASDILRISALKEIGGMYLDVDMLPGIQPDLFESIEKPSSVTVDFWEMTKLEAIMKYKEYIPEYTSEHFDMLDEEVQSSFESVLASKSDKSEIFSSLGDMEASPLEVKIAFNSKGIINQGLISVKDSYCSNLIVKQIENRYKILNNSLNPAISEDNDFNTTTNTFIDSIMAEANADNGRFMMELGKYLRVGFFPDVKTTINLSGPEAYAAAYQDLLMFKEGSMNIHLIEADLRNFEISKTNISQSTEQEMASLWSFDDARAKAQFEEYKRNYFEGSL
The assay is described as follows: biochemical.

Assay [4] relates to C. difficile toxin (TcdA and TcdB, ~1:1). Briefly: Murine C. difficile toxin model (intrarectal toxin). Type of assay: in vivo, C57BL/6 mice. To be noted: murine C. difficile toxin model, PO, 50 mg/kg body weight. The protocol: In the following studies, we established a murine C. difficile toxin model with modifications from a published murine model (Hirota, Iablokov et al. 2012). Details of the murine C. difficile toxin model are described in the “Experimental Protocols” (below). C. difficile toxins were isolated from a culture of the C. difficile strain VPI 10463. C. difficile toxins consisted of TcdA and TcdB (˜1:1 ratio of TcdA:TcdB). Respective TcdA and TcdB concentrations were determined by enzyme-linked immunosorbant assay (ELISA). In our mouse model, C. difficile toxins were administered intrarectally to evaluate their pathological effects.
We administered C. difficile toxin (12.5 μg/mouse) via intrarectal instillation into female C57BL/6 mice. Four (4) animals were used in each group. Four (4) hours after the toxin administration, the mice were euthanized. The colons were excised from the animals and washed with phosphate buffered saline (PBS). The colon lengths were measured. Excised colon tissues were stored at −70° C. for chemical analysis of interleukin-1β(IL-1β) and myeloperosidase (MPO) in tissues, which are the hallmarks of colon inflammation. Excised colon tissues were also stored at room temperature in 10% neutral buffered formalin for histopathological analysis.
Using the murine C. difficile toxin model (Example 61), we evaluated the efficacy of Example 6a in reducing the C. difficile toxin activity. In this study, the isolated toxin (12.5 μg) was diluted in 50 μl of PBS and mixed with a 50 μl suspension of Example 6a (10 mg/mL) in 1% carboxymethyl cellulose and 0.5% Tween 80 to achieve a fixed dose of […] of Example 6a (0.5 mg in mice weighing ˜20 g) and C. difficile toxin (12.5 μg). Three (3) animals were used in each group.
In this study, we evaluated the efficacy of Example 6a via different routes of administration (i.e., oral (PO) and intraperitoneal (IP) administrations) in the same murine C. difficile toxin model (Example 61). In both PO and IP dosages, Example 6a was prepared as 5 mg/mL solutions in 20% PEG-400, 0.4% carboxymethyl cellulose and 0.2% Tween 80. Example 6a was administered at a final dose of 50 mg/kg body weight. Three (3) mice were used in each group (i.e., vehicle (control), PO and IP).
Using the murine C. difficile toxin model (Example 63), we further tested the efficacy of four (4) additional compounds (i.e., Example 6a, Example 5ae, Example 4cl, and Example 5al) via PO administration. All of the compounds were dosed orally at 50 mg/kg body weight. In three separate studies a total of three (3) to fourteen (14) mice were used in each group.
We evaluated the efficacy of additional compounds in reducing C. difficile toxicity. Using the PO administration (Example 63), we further tested 30 compounds (Table 34). All of the compounds were dosed orally at 50 mg/kg body weight. Three (3) to fourteen (14) animals were used for each compound. % inhibition was determined by the following formula: […]
An overnight culture of C. difficile strain VPI 10463 (American Type Culture Collection) was grown at 37° C. in Brain-Heart Infusion (BHI) broth using the GasPak EZ Anaerobe Pouch System (Becton Dickinson). 2 mL of the culture was added to 28 mL of phosphate buffered saline (PBS) in a gamma-irradiated, 10,000 molecular weight cut-off, 30-70 ml Slide-A-Lyzer G2 dialysis cassette (Pierce). This cassette was submerged in 1 L of BHI broth in a 2 L beaker and incubated under anaerobic conditions for 5 days at 37° C. The culture was then transferred to a 50 mL conical tube and the cassette was washed with 10 mL of PBS. The combined culture and wash were centrifuged at 2,000 g for 20 minutes to pellet the bacteria and the supernatant was filtered through a 0.2 μm syringe filter. The filtrate was then applied to a 20 mL 150 K molecular weight cut-off concentration column (Pierce) and centrifuged at 2,000 g for 15 minutes. Concentrated supernatant was stored at 4° C. […]

T1 sequence (P16154 whole entry, looked up): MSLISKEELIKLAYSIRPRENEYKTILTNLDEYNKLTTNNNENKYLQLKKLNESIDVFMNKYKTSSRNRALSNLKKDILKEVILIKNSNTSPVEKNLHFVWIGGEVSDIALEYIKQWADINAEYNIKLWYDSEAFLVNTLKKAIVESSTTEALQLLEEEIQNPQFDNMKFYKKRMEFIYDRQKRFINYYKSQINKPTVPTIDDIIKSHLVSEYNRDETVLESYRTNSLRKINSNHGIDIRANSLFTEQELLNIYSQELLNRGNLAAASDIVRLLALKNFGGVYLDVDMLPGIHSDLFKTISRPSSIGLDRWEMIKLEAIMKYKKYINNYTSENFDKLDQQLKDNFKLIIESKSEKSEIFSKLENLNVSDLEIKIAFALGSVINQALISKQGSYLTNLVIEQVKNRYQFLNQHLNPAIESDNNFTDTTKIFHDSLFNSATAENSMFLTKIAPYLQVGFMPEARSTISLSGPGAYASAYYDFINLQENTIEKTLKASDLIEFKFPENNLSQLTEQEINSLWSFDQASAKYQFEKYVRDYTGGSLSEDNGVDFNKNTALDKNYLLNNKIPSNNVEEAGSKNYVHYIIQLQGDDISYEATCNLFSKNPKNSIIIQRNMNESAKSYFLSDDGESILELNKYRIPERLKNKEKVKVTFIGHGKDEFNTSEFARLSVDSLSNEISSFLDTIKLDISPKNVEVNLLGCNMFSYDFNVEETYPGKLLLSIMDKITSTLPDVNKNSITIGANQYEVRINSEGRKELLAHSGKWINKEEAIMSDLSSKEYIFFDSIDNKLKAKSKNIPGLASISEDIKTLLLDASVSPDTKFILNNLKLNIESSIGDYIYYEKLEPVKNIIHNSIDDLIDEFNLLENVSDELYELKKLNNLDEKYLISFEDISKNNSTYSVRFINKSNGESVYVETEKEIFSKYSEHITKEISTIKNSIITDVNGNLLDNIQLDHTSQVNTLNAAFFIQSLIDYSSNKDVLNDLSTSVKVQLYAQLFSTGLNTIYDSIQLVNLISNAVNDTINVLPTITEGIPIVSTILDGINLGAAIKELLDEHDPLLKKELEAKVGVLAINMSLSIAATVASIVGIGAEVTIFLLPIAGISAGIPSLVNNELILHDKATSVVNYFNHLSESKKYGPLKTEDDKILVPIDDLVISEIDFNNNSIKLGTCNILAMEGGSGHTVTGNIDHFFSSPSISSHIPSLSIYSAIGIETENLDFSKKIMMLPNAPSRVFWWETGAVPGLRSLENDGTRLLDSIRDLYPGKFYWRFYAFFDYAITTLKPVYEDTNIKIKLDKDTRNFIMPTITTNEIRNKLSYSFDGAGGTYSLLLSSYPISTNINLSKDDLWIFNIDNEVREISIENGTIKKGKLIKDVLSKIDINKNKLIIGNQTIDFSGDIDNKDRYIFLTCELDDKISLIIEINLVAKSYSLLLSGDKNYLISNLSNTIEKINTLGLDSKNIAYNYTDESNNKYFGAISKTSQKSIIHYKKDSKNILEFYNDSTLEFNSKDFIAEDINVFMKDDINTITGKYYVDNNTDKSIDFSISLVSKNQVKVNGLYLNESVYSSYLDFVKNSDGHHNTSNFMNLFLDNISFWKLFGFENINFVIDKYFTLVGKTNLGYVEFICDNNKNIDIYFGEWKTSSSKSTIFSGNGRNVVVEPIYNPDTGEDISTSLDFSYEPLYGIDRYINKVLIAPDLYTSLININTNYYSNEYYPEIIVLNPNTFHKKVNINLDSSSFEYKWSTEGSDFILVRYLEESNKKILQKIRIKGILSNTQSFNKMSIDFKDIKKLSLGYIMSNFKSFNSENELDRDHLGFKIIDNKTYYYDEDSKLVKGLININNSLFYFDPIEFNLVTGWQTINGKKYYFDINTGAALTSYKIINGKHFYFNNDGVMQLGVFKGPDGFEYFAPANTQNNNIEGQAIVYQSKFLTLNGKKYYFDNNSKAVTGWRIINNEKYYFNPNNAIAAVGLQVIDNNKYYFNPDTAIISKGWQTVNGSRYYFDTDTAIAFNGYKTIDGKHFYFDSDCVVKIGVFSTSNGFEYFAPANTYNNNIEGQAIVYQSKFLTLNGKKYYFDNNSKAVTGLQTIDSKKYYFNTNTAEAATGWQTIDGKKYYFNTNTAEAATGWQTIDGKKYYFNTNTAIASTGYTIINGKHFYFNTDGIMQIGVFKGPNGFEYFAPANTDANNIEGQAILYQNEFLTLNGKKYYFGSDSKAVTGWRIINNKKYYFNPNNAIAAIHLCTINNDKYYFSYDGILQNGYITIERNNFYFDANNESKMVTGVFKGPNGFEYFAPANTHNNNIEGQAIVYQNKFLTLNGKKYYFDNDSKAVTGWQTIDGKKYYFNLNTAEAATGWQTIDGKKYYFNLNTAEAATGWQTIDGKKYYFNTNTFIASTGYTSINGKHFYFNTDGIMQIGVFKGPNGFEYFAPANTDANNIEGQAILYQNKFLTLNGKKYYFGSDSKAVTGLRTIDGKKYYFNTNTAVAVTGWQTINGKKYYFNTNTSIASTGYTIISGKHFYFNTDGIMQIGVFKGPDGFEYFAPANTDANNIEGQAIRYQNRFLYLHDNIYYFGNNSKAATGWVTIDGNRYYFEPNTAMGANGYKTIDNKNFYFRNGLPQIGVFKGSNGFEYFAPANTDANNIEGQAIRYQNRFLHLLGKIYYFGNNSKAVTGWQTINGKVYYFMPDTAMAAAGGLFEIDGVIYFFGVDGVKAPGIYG

In general, IC50 refers to the concentration that gives 50% inhibition. With `COc1cc(CN2C(=O)c3ccc(Cl)cc3NC(=O)[C@H]2Cc2ccccn2)ccc1C(=O)Nc1cnc(C)cn1` [Example 5aj, (R)-4-((8-Chloro-2,5-dioxo-3-(pyridin-2-ylmethyl)-2,3-dihydro-1H-benzo[e][1,4]diazepin-4(5H)-yl)methyl)-2-methoxy-N-(5-methylpyrazin-2-yl)benzamide], the IC50 is 1000 to 10000 nM in assay [1], 100 to 999 nM in assay [2] and < 100 nM in assay [3]. Besides, in assay [4], the “IL-1β (% Inhibition)” value came out at 76%. The “MPO (% Inhibition)” value in assay [4] was found to be 17%.
As to `O=C(c1ccc(CN2C(=O)c3ccc(Cl)cc3NC(=O)[C@H]2Cc2ccccn2)cc1)c1cccn2ccnc12` [Example 34a, (R)-8-Chloro-4-(4-(imidazo[1,2-α]pyridine-8-carbonyl)benzyl)-3-(pyridin-2-ylmethyl)-3,4-dihydro-1H-benzo[e][1,4]diazepine-2,5-dione], the half-maximal inhibitory concentration (IC50) in assay [1] was > 10000 nM; in assay [2] it was 100 to 999 nM; in assay [3] it was < 100 nM.
`O=C(c1ccc(CN2C(=O)c3ccc(Cl)cc3NC(=O)[C@H]2Cc2ccccn2)cc1)c1c[nH]c2cccnc12` [Example 32a, 4-(4-(1H-Pyrrolo[3,2-b]pyridine-3-carbonyl)benzyl)-8-chloro-3-(pyridin-2-ylmethyl)-3,4-dihydro-1H-benzo[e][1,4]diazepine-2,5-dione]: the IC50 in assay [3] is < 100 nM. Besides, in assay [4], the “IL-1β (% Inhibition)” value was 72% and the “MPO (% Inhibition)” value stood at 76%.
On to `COc1cnc(NC(=O)[C@H]2CC[C@H](CN3C(=O)c4ccc(Cl)cc4NC(=O)[C@H]3Cc3ccccn3)CC2)nc1` [Example 5ax, (1R,4r)-4-(((R)-8-chloro-2,5-dioxo-3-(pyridin-2-ylmethyl)-2,3-dihydro-1H-benzo[e][1,4]diazepin-4(5H)-yl)methyl)-N-(5-methoxypyrimidin-2-yl)cyclohexanecarboxamide], for which the half-inhibitory concentration (IC50) in assay [3] is < 100 nM.
Same read-out and setting: the same measure for `O=C(O)c1ccc(CN2C(=O)c3ccc(Cl)cc3NC(=O)[C@H]2Cc2cccnc2)cc1` [Example 2a, (R)-4-((8-Chloro-2,5-dioxo-3-(pyridin-3-ylmethyl)-2,3-dihydro-1H-benzo[e][1,4]diazepin-4(5H)-yl)methyl)benzoic Acid]: 100 to 999 nM; for `COc1ccc(NC(=O)c2ccc(CN3C(=O)c4ccc(Cl)cc4NC(=O)[C@H]3Cc3ccccn3)cc2)nn1` [Example 4bm, (R)-4-((8-chloro-2,5-dioxo-3-(pyridin-2-ylmethyl)-2,3-dihydro-1H-benzo[e][1,4]diazepin-4(5H)-yl)methyl)-N-(6-methoxypyridazin-3-yl)benzamide]: < 100 nM.
Regarding `O=C(Nc1ccc(CN2C(=O)c3ccc(Cl)cc3NC(=O)[C@H]2Cc2ccccn2)cc1)c1ncc[nH]1` [Example 27h], the half-inhibitory concentration (IC50) in assay [3] is < 100 nM.
Still for that read-out and setting: the result for `Cc1ccc(NC(=O)c2ccc(CN3C(=O)c4ccc(Cl)cc4NC(=O)[C@H]3CCN3CCNC(=O)C3)cc2)nc1` [Example 10e] reads 1000 to 10000 nM; that for `Cc1ccc(NC(=O)c2ccc(CN3C(=O)c4ccc(NS(C)(=O)=O)cc4NC(=O)[C@H]3C)cc2)nc1` [Example 39a, (R)-4-((3-Methyl-8-(methylsulfonamido)-2,5-dioxo-2,3-dihydro-1H-benzo[e][1,4]diazepin-4(5H)-yl)methyl)-N-(5-methylpyridin-2-yl)benzamide], 10000 to 35000 nM; that for `O=C(CN1CCOCC1)Nc1cc(CN2C(=O)c3ccc(Cl)cc3NC(=O)[C@H]2Cc2ccccn2)ccc1C(=O)O` [Example 22h], 1000 to 10000 nM.
The same measure, in the same setting: the result for `O=C(Nc1ccc(C(F)(F)F)cn1)c1ccc(CN2C(=O)c3ccc(Cl)cc3NC(=O)[C@H]2Cc2ccccn2)s1` [Example 4bt, (R)-5-((8-chloro-2,5-dioxo-3-(pyridin-2-ylmethyl)-2,3-dihydro-1H-benzo[e][1,4]diazepin-4(5H)-yl)methyl)-N-(5-(trifluoromethyl)pyridin-2-yl)thiophene-2-carboxamide] reads 1000 to 10000 nM; that for `COc1ccc(C[C@@H]2C(=O)Nc3cc(Cl)ccc3C(=O)N2Cc2ccc(C(=O)Nc3ccccn3)cc2)cc1` [Example 35d], 100 to 999 nM.
Take `O=C(Nc1ncc(C(F)(F)F)cn1)c1ccc(CN2C(=O)c3ccc(Cl)cc3NC(=O)[C@H]2Cc2ccccn2)cc1` [Example 49a, (R)-4-((8-Chloro-2,5-dioxo-3-(pyridin-2-ylmethyl)-2,3-dihydro-1H-benzo[e][1,4]diazepin-4(5H)-yl)methyl)-N-(5-(trifluoromethyl)pyrimidin-2-yl)benzamide]: in assay [3], the concentration for half-maximal inhibition (IC50) was < 100 nM.
Regarding `Cc1cccnc1C(=O)c1ccc(CN2C(=O)c3ccc(Cl)cc3NC(=O)[C@H]2Cc2ccccn2)cc1F` [Example 11i, (R)-8-chloro-4-(3-fluoro-4-(3-methylpicolinoyl)benzyl)-3-(pyridin-2-ylmethyl)-3,4-dihydro-1H-benzo[e][1,4]diazepine-2,5-dione], the IC50 in assay [3] is 1000 to 10000 nM.
The same measure, in the same setting: the same measure for `O=C(O)c1ccc(CN2C(=O)c3ccc(Cl)cc3NC(=O)[C@H]2Cc2cscn2)cc1` [Example 1m]: 1000 to 10000 nM; for `O=C1Nc2cc(Cl)ccc2C(=O)N(Cc2ccc3c(c2)CCN(c2ccccn2)C3=O)[C@@H]1Cc1ccccn1` [Example 37a, (R)-8-Chloro-4-((1-oxo-2-(pyridin-2-yl)-1,2,3,4-tetrahydroisoquinolin-6-yl)methyl)-3-(pyridin-2-ylmethyl)-3,4-dihydro-1H-benzo[e][1,4]diazepine-2,5-dione]: 1000 to 10000 nM.
On the same count and under the same terms, the result for `Cc1ccc(NC(=O)c2ccc(CN3C(=O)c4ccc(Cl)cc4NC(=O)[C@H]3Cc3ccccn3)s2)nc1` [Example 4bs, (R)-5-((8-chloro-2,5-dioxo-3-(pyridin-2-ylmethyl)-2,3-dihydro-1H-benzo[e][1,4]diazepin-4(5H)-yl)methyl)-N-(5-methylpyridin-2-yl)thiophene-2-carboxamide] reads 100 to 999 nM; that for `O=C1Nc2cc(Cl)ccc2C(=O)N(Cc2ccc(C(=NO)c3ccccn3)cc2)[C@@H]1Cc1ccccn1` (mixture of isomers) [Example 52a, (R)-8-Chloro-4-(4-((hydroxyimino)(pyridin-2-yl)methyl)benzyl)-3-(pyridin-2-ylmethyl)-3,4-dihydro-1H-benzo[e][1,4]diazepine-2,5-dione], 100 to 999 nM; that for `Cc1cccc(-c2cc(CN3C(=O)c4ccc(Cl)cc4NC(=O)[C@H]3Cc3ccccn3)ccc2C(=O)O)c1` [Example 8h, (R)-5-((8-chloro-2,5-dioxo-3-(pyridin-2-ylmethyl)-2,3-dihydro-1H-benzo[e][1,4]diazepin-4(5H)-yl)methyl)-3′-methyl-[1,1′-biphenyl]-2-carboxylic acid], 100 to 999 nM.
Still for that read-out and setting: the same measure for `Cc1ccc(NC(=O)c2ccc(CN3C(=O)c4ccc(Cl)cc4NC(=O)[C@H]3Cc3ccsc3)cc2)nc1` [Example 35b]: < 100 nM; for `O=C1Nc2cc(Cl)ccc2C(=O)N(Cc2ccc(C(=O)N3CCc4cccnc43)cc2)[C@@H]1Cc1ccccn1` [Example 4ah, (R)-8-chloro-4-(4-(2,3-dihydro-1H-pyrrolo[2,3-b]pyridine-1-carbonyl)benzyl)-3-(pyridin-2-ylmethyl)-3,4-dihydro-1H-benzo[e][1,4]diazepine-2,5-dione]: < 100 nM.

The values above are taken from US10669242B2 (priority 2016, dated 2020).
